Data published in US11492342B2, “Crystalline forms of piperazine-1,4-diylbis((6-(1H-benzo[d]imidazo-2-yl)pyridin-2yl)methanone)” (Landos Biopharma, Inc., priority 2020, dated 2022).
Like-named read-outs stand apart in the source and are kept apart here.

Tests used:
[1] = Pharmacokinetic analysis: oral dosing to mice, BT-11 in plasma and colonic tissue by LC/MS/MS; conditions: for Colon BT-11 Concentration / Plasma BT-11 Cmax: oral; for Colon BT-11 Concentration: colon 4 hours post-dose
Method: BT-11 Form 0, Form 1, and Form 2 were orally dosed to male and female mice (n=4) to provide 8 mg/kg. Plasma was collected at 1, 2, and 4 hours post-dose. At 4 hours post-dose, colons were excised and washed in PBS. Tissues were then homogenized by Fast-Prep24 instrument. Plasma and tissue homogenate were prepared by acetonitrile-based liquid-liquid extraction. BT-11 concentrations were determined by LC/MS/MS analysis using a linear calibration curve.

[2] = Particle size distribution (PSD) analysis; format: physicochemical
Method: Particle size distribution analysis was carried out using a particle size analyzer with a dispersion cell. Approximately 50 mg of sample was weighed into a 20 mL scintillation vial and 10 mL of dispersant was added. The sample was sonicated for 30 seconds, aspirated with a glass pipette, and then added to the dispersion unit. The sample was circulated for 30 seconds to allow the dispersion to stabilize.

[3] = Dynamic vapor sorption (DVS); format: physicochemical; conditions: for re-crystallization or form change during the DVS experiment: DVS kinetic plot
Method: Approximately, 10 mg of sample was placed into a mesh vapor sorption balance pan and loaded into a DVS-1/DVS Intrinsic/DVS Advantage dynamic vapor sorption balance by Surface Measurement Systems. The sample was subjected to a ramping profile from 40-90% relative humidity (RH) at 10% increments, maintaining the sample at each step until a stable weight had been achieved (dm/dt 0.004%, minimum step length 30 min, maximum step length 500 min) at 25° C. After completion of the sorption cycle, the sample was dried using the same procedure to 0% RH and then a second sorption cycle back to 40% RH. Two cycles were performed. The weight change during the sorption/desorption cycles were plotted, allowing for the hygroscopic nature of the sample to be determined. XRPD analysis was then carried out on any solid retained.

[4] = Solid form change on drying, followed by XRPD; format: physicochemical
Method: XRPD analysis was carried out, scanning the samples between 3 and 35° 2θ. The material was gently ground to release any agglomerates and loaded onto a multi-well plate with polymer film to support the sample. The multi-well plate was then placed into the diffractometer and analyzed using Cu K radiation (α1λ=1.54060 Å; α2=1.54443 Å; β=1.39225 Å; α1:α2 ratio=0.5) running in transmission mode (step size 0.0130° 2θ, step time 18.87 s) using 40 kV/40 mA generator settings. Data were visualized and analyzed.

[5] = cited from earlier work
[6] = system: TNFα production in the gastrointestinal tract, fecal calprotectin; conditions: mice; cited from earlier work
[7] = system: CD25/STAT5 signaling and late-stage glycolysis; conditions: murine cells; cited from earlier work
[8] = system: CD25/STAT5 signaling and late-stage glycolysis; conditions: human cells; cited from earlier work
[9] = mice, 8 mg/kg, plasma collected at 1, 2 and 4 hours post-dose
[10] = DVS, 25° C., listed as BT-11 Form 1
[11] = DVS, 25° C., listed as BT-11 Form 2
[12] = DVS, 25° C., listed as BT-11 Form 3

`O=C(c1cccc(-c2nc3ccccc3[nH]2)n1)N1CCN(C(=O)c2cccc(-c3nc4ccccc4[nH]3)n2)CC1` [Form 0, piperazine-1,4-diylbis((6-(1H-benzo[d]imidazo-2-yl)pyridine-2-yl)methanone)] gave a Cmax ([1]; both, mouse, plasma, po, 8 mg/kg, Plasma BT-11 Cmax, mice, plasma collected at 1, 2 and 4 hours post-dose) of 186 ng/mL, a Colon BT-11 Concentration ([1]; mice, 8 mg/kg) of 1280 ng/g and a d10 [2] of 0.2 μm. The d50 [2] was 6.3 μm and the d90 [2] was 19.8 μm.

With `Cl.Cl.O=C(c1cccc(-c2nc3ccccc3[nH]2)n1)N1CCN(C(=O)c2cccc(-c3nc4ccccc4[nH]3)n2)CC1` [Form 1, piperazine-1,4-diylbis((6-(1H-benzo[d]imidazo-2-yl)pyridine-2-yl)methanone)] the Colon BT-11 Concentration ([1]; mice, 8 mg/kg) was 3000 ng/g, the “Plasma BT-11 Cmax” value [1, 9] was 177 ng/mL and the “re-crystallization or form change during the DVS experiment” value ([3]; listed as BT-11 Form 1) was “no evidence of re-crystallization or form change”. For the same compound, the hygroscopic nature [3, 10] was “hygroscopic”, the “total mass increase up to 90% RH” value [3, 10] was 24% and the “total mass lost below 20% RH” value [3, 10] was 6.0%. It also gave a d10 ([2]; listed as BT-11 Form 1) of 0.1 μm, a d50 ([2]; listed as BT-11 Form 1) of 0.5 μm and a d90 ([2]; listed as BT-11 Form 1) of 40.8 μm.

With `Cl.Cl.O=C(c1cccc(-c2nc3ccccc3[nH]2)n1)N1CCN(C(=O)c2cccc(-c3nc4ccccc4[nH]3)n2)CC1` [Form 2, piperazine-1,4-diylbis((6-(1H-benzo[d]imidazo-2-yl)pyridine-2-yl)methanone)] the Colon BT-11 Concentration ([1]; mice, 8 mg/kg) was 4470 ng/g, the “Plasma BT-11 Cmax” value [1, 9] was 41 ng/mL and the “confinement to the gastrointestinal tract after oral administration” value ([1]; mouse, in vivo, po) was “increased confinement to the gastrointestinal tract”. The “re-crystallization or form change during the DVS experiment” value ([3]; listed as BT-11 Form 2) was “no evidence of re-crystallization or form change”, the “mass uptake on 2nd cycle” value ([3]; DVS, 25° C., 2nd cycle) was 0.23% and the hygroscopic nature [3, 11] was “slightly hygroscopic”. The “total mass increase up to 90% RH” value [3, 11] was 0.32%, the d10 ([2]; listed as BT-11 Form 2) was 18.2 μm and the d50 ([2]; listed as BT-11 Form 2) was 31.9 μm. It also gave a d90 ([2]; listed as BT-11 Form 2) of 83.9 μm.

With `Cl.Cl.O=C(c1cccc(-c2nc3ccccc3[nH]2)n1)N1CCN(C(=O)c2cccc(-c3nc4ccccc4[nH]3)n2)CC1` [Form 3, piperazine-1,4-diylbis((6-(1H-benzo[d]imidazo-2-yl)pyridine-2-yl)methanone)] the “re-crystallization or form change during the DVS experiment” value ([3]; listed as BT-11 Form 3) was “No evidence of re-crystallization or form change”, the “total moisture uptake due to surface moisture” value ([3]; DVS, 25° C.) was 2.8% and the “total mass increase up to 90% RH” value [3, 12] was 7.8%. For the same compound, the “total mass lost below 20% RH” value [3, 12] was 5.0%.

For `Cl.Cl.O=C(c1cccc(-c2nc3ccccc3[nH]2)n1)N1CCN(C(=O)c2cccc(-c3nc4ccccc4[nH]3)n2)CC1` [Form 7, piperazine-1,4-diylbis((6-(1H-benzo[d]imidazo-2-yl)pyridine-2-yl)methanone)], the form change post-drying [4] was “convert to Form 2”.

For `O=C(c1cccc(-c2nc3ccccc3[nH]2)n1)N1CCN(C(=O)c2cccc(-c3nc4ccccc4[nH]3)n2)CC1` [piperazine-1,4-diylbis((6-(1H-benzo[d]imidazo-2-yl)pyridine-2-yl)methanone)], the “systemic absorption when orally administered” value [5] is listed as “poorly systemically absorbed”, the fecal calprotectin levels [6] is listed as “reduces” and the “local TNFα production in the gastrointestinal tract” value [6] is listed as “reduces”. For the same compound, the “CD25/STAT5 signaling and late-stage glycolysis” value [7] was “induces changes” and the “CD25/STAT5 signaling and late-stage glycolysis” value [8] was “induces changes”.
